Laboratory results taken from article PMC12368660, “Synergistic Ciprofloxacin-RWn Peptide Therapy Overcomes Drug Resistance in Gram-Negative Bacteria” (ACS Omega, 2025).
No end group written: not given here.

Assays:
[1] = tested on: human embryonic kidney (HEK293) cells (ATCC CRL-1573); type: cell-based; details: 24 h
Description: HEK293 cells were cultured in Dulbecco's modified Eagle's medium (DMEM; Gibco, Thermo Fisher Scientific, Waltham, MA) supplemented with 10% (v/v) fetal bovine serum (FBS; Gibco) and 1% penicillin/streptomycin (Gibco) at 37 °C in a humidified atmosphere containing 5% CO2. Cells were seeded in 384-well plates at a density of 5 × 10^3 cells/well and incubated for 24 h. Compounds were then added to the wells at various concentrations. After a further 24 h incubation, resazurin (Sigma-Aldrich) was added to each well to a final concentration of 44 μM. After 4 h of incubation, fluorescence was measured at excitation/emission wavelengths of 560/590 nm using a Tecan […] microplate reader. Cell viability was expressed as a percentage relative to that of untreated control cells. […] All assays were conducted in duplicate (n = 2) across separate assay plates. […]

[2] = tested on: human umbilical vein endothelial (HUVEC) cells
[3] = cited from earlier work; for Solubility in 1x DPBS, estimated maximum concentration tested or achieved: pH 7.1
Description: Ciprofloxacin (CIP; Sigma-Aldrich, St. Louis, MO) and synthesized peptides were dissolved to prepare stock solutions. […] Solubility Test Results for Synthetic RWn Peptides. Peptide Ultrapure Waterᵃ 1x DPBS (pH 7.1 ± DMSOᵃ Formic Acid ID 0.1)ᵃ (HCOOH)ᵃ RW4 Dissolved (≤10 Dissolved (≤5 mg/mL) Dissolved (≤15 mg/mL) N/A mg/mL) RW4P Dissolved (≤2 Dissolved (≤2 mg/mL) Dissolved (≤10 mg/mL) N/A mg/mL) RW6 Dissolved (≤10 Undissolved Dissolved (≥10 mg/mL) N/A mg/mL) RW6P Dissolved (≤5 Undissolved Dissolved (≥10 mg/mL) N/A mg/mL) RW6-2P Undissolved Undissolved Dissolved (≤2 mg/mL) N/A RW8 Dissolved (≤5 Undissolved Dissolved (≤15 mg/mL) N/A mg/mL) RW8P Undissolved Undissolved Undissolved Dissolved (≤5 mg ...

[4] = tested on: human embryonic kidney (HEK293) cells (ATCC CRL-1573); parameters: method as in earlier work; details: cited from earlier work
[5] = tested on: human umbilical vein endothelial (HUVEC) cells; parameters: method as in earlier work; details: cited from earlier work

N=C(N)NCCC[C@H](NC(=O)[C@H](Cc1c[nH]c2ccccc12)NC(=O)[C@H](CCCNC(=N)N)NC(=O)[C@H](Cc1c[nH]c2ccccc12)NC(=O)[C@H](CCCNC(=N)N)NC(=O)[C@H](Cc1c[nH]c2ccccc12)NC(=O)[C@H](CCCNC(=N)N)NC(=O)[C@H](Cc1c[nH]c2ccccc12)NC(=O)[C@H](CCCNC(=N)N)NC(=O)[C@H](Cc1c[nH]c2ccccc12)NC(=O)[C@@H](N)CCCNC(=N)N)C(=O)N[C@@H](Cc1c[nH]c2ccccc12)C(=O)O [RW6]
HEK293 (CC50) [1]: >32 µg/mL
HUVEC (CC50) [2]: >32 µg/mL
Solubility in DMSO, estimated maximum concentration tested or achieved [3]: ≥ 10000 µg/mL
Solubility in ultrapure water, estimated maximum concentration tested or achieved [3]: ≤ 10000 µg/mL

RWRWPRWRWPRWRW-NH2 [RW6–2P]
Solubility in DMSO, estimated maximum concentration tested or achieved [3]: ≤ 2000 µg/mL

RWRWRWRWPRWRWRWRW-NH2 [RW8P]
Solubility in formic acid (HCOOH), estimated maximum concentration tested or achieved [3]: ≤ 5000 µg/mL

RWRWRWPRWRWRW-NH2 [RW6P]
Solubility in DMSO, estimated maximum concentration tested or achieved [3]: ≥ 10000 µg/mL
Solubility in ultrapure water, estimated maximum concentration tested or achieved [3]: ≤ 5000 µg/mL

RWRWRWRW [RW4]
HEK293 (CC50) [1]: >32 µg/mL
HUVEC (CC50) [2]: >32 µg/mL
concentration without detectable cytotoxicity, HEK293 [4]: > 32000 ng/mL
concentration without detectable cytotoxicity, HUVEC [5]: > 32000 ng/mL
Solubility in DMSO, estimated maximum concentration tested or achieved [3]: ≤ 15000 µg/mL
Solubility in ultrapure water, estimated maximum concentration tested or achieved [3]: ≤ 10000 µg/mL
Solubility in 1x DPBS, estimated maximum concentration tested or achieved [3]: ≤ 5000 µg/mL

RWRWPRWRW-NH2 [RW4P]
Solubility in DMSO, estimated maximum concentration tested or achieved [3]: ≤ 10000 µg/mL
Solubility in ultrapure water, estimated maximum concentration tested or achieved [3]: ≤ 2000 µg/mL
Solubility in 1x DPBS, estimated maximum concentration tested or achieved [3]: ≤ 2000 µg/mL

RWRWRWRWRWRWRWRW [RW8, arginine-tryptophan-rich antimicrobial peptide, 16 AA]
Solubility in DMSO, estimated maximum concentration tested or achieved [3]: ≤ 15000 µg/mL
Solubility in ultrapure water, estimated maximum concentration tested or achieved [3]: ≤ 5000 µg/mL
